Results: PubChem BioAssay (NCI)
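Five compound concentrations were applied to cells in 96-well plates for 48 hours; endpoints were derived by simple linear interpolation of the resulting dose-response curve. The concentration for full growth arrest is given as TGI.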

Legend:
Test in all cases: inhibition of tumour cell growth, NCI panel, 48 h
NCI-H522 lung = tested on: NCI-H522 lung
SNB-19 CNS = tested on: SNB-19 CNS
UACC-257 melanoma = tested on: UACC-257 melanoma
K-562 leukemia = tested on: K-562 leukemia
OVCAR-5 ovarian = tested on: OVCAR-5 ovarian
EKVX NSCLC = tested on: EKVX NSCLC
LOX IMVI melanoma = tested on: LOX IMVI melanoma
SR leukemia = tested on: SR leukemia
U251 CNS = tested on: U251 CNS
RPMI-8226 leukemia = tested on: RPMI-8226 leukemia
A549 NSCLC = tested on: A549 NSCLC
NCI-H226 lung = tested on: NCI-H226 lung
HOP-92 NSCLC = tested on: HOP-92 NSCLC
SK-OV-3 ovarian = tested on: SK-OV-3 ovarian
MCF7 breast = tested on: MCF7 breast
SNB-75 CNS = tested on: SNB-75 CNS
M14 melanoma = tested on: M14 melanoma
HS 578T breast = tested on: HS 578T breast
UO-31 renal = tested on: UO-31 renal

Row | Structure (SMILES) | TGI (NCI-H522 lung) [µM] | TGI (SNB-19 CNS) [µM] | TGI (UACC-257 melanoma) [µM] | TGI (K-562 leukemia) [µM] | TGI (OVCAR-5 ovarian) [µM] | TGI (EKVX NSCLC) [µM] | TGI (LOX IMVI melanoma) [µM] | TGI (SR leukemia) [µM] | TGI (U251 CNS) [µM] | TGI (RPMI-8226 leukemia) [µM] | TGI (A549 NSCLC) [µM] | TGI (NCI-H226 lung) [µM] | TGI (HOP-92 NSCLC) [µM] | TGI (SK-OV-3 ovarian) [µM] | TGI (MCF7 breast) [µM] | TGI (SNB-75 CNS) [µM] | TGI (M14 melanoma) [µM] | TGI (HS 578T breast) [µM] | TGI (UO-31 renal) [µM]
1 | CCOC(CCNCC(OCC)OCC)OCC | > 10 | > 10 | > 10 | > 10 | > 10 | > 10 | > 10 | > 10 | > 10 | > 10 | > 10 | > 10 | > 10 | > 10 | > 10 | > 10 | > 10 | > 10 | 
2 | Cc1ccc(S(=O)(=O)N/N=C/C(=C/c2ccc(Cl)cc2)CC(/C=N/NS(=O)(=O)c2ccc(C)cc2)=C\c2ccc(Cl)cc2)cc1 | 16.1 | > 100 | 63.6 | 8.19 | 35.5 | 38.4 | 3.73 | 24.5 | 17.2 | 9.11 | > 100 | 38 | 12.4 | > 100 | 12.6 | 60.1 | 48.1 | 21.5 | 18.7
3 | COc1ccc(C(C)NNC(=O)c2ccncc2)c(OC)c1 (stereo unspecified) | > 100 | > 100 | > 100 | > 100 | > 100 | > 100 | > 100 | > 100 | > 100 | > 100 | > 100 | > 100 | > 100 | > 100 | > 100 | > 100 | > 100 | > 100 | > 100
4 | CCOC(=O)C1(Cc2ccc3c(c2)CCC3)Cc2cc3c(cc2C1)CCC3 | 75.5 | > 100 | 86.2 | > 100 | > 100 | > 100 | 82.4 | > 100 | > 100 | 49.2 | > 100 | 81.9 |  | 88.2 | 40.4 | > 100 | 55.9 | > 100 | > 100
5 | COC(=O)C(C)(NC(=O)C(CC(=O)OC(C)(C)C)NC(=O)OC(C)(C)C)c1ccccc1 (stereo unspecified) | > 100 | > 100 | > 100 | > 100 | > 100 | > 100 | > 100 | > 100 | > 100 | > 100 | > 100 | > 100 | > 100 | > 100 | > 100 | > 100 | > 100 | > 100 | > 100
6 | Nc1nc(Cl)c(N)c(NC23CC4CC(CC(C4)C2)C3)n1 | 4.26 | 3.42 | 7.16 | 6.87 | 2.84 | 5.36 | > 100 | > 22.2 | 3.06 | 5.02 | 6.16 | 4.22 | > 19.9 | 17.4 | 3.78 | 4.91 | 3.02 | > 100 | 3.55
7 | COc1cc(-c2cc(=O)c3c(OC)c(OC)c(OC)c(OC)c3o2)c(OC)c(OC)c1OC | 94.6 | > 100 | > 100 | > 100 | > 100 | > 100 | > 100 | > 100 | > 100 | > 100 | > 100 | > 100 | 82.5 | > 100 | > 100 | > 100 | > 100 | > 100 | 88.6
8 | O=C(CCCn1ccnc1[N+](=O)[O-])NCCn1cncc1[N+](=O)[O-] | > 100 |  | > 100 | > 100 | > 100 | > 100 | > 100 | > 100 | > 100 | > 100 | > 100 | > 100 | > 100 | > 100 | > 100 | > 100 | > 100 | > 100 | > 100
9 | CC1=C(C#N)C(C#N)(C#N)C(NN(C)C)C1 (stereo unspecified) | 24.8 |  | 26.4 | 60.8 | 47.4 | 86.3 | 29.7 | > 100 | > 100 | 35.9 | > 100 |  | 30.8 | > 100 | 77.3 | 40.3 | > 100 | > 100 | 29.3
10 | CCCCCCCCCCCCCCCCCCNc1ccn(C2OC(COP(=O)(O)OCC3OC(n4cc(C)c(=O)[nH]c4=O)CC3O)C(O)C2O)c(=O)n1 (stereo unspecified) | 30.3 | 29.8 | 37.1 | 50.2 | 28.2 | 34.9 | 31.9 | 28.2 | 34.9 | 37.3 | 32.4 | 42.1 | 62.8 | 31.8 | > 100 | 33 | 30.7 | 42.4 | 33.9
11 | CC(=O)c1c2c(cc3c1CC1(Cc4ccccc4C1=O)C3)CCC2 (stereo unspecified) | > 100 | > 100 | 64.6 | > 100 | > 100 | 63.9 | 55.7 | 47.9 | > 100 | 39.1 | > 100 | 72.4 | 49.5 | > 100 | 44.3 | > 100 | 74.5 | > 100 | > 100
12 | COc1nc(C(=O)NNC(=O)c2nc(OC)c3ccccc3c2-c2ccccc2)c(-c2ccccc2)c2ccccc12 | > 100 | > 100 | > 100 | > 100 | > 100 | > 100 |  | > 100 | > 100 | > 100 | > 100 | > 100 |  | > 100 | > 100 | > 100 | > 100 | > 100 | > 100
